Patent publication US20090137391A1, “Use of benzyladenine to improve emergence of seeds treated with abscisic acid” (priority 2007, published 2009)

Assays:
Type in all cases: in vivo
canola seed [1] = assay: Canola seed treatment, soil emergence: ABA-dose x benzyladenine (technical powder) dose factorial
Procedure: The experiment was set up as an ABA-dose×BA-dose factorial experiment, with four doses of ABA (0, 25, 50, and 100 g/cwt) and four doses of benzyladenine (0, 1, 5 and 25 g/cwt) for a total of 16 treatment combinations. The treatments were made up in 1 ml samples of experimental aqueous seed treatment slurry. ABA was added in the form of a water solution of the ammonium salt. Benzyladenine was added as technical powder. Ten μl Tween-20 were added to each sample to help wet and suspend the benzyladenine powder. All of the seed treatment slurry samples contained CF-Clear film-forming agent and Color Coat Red (Becker Underwood), each at 1 oz/cwt, and 0.167 oz/cwt Maxim XL fungicide (Syngenta). The slurry application volume was 40 […]=100 lbs of seed). Ten gram samples of canola seed were treated with the experimental slurries using a Hege 11 seed treater with a six-inch bowl. The seed was planted in plastic boxes containing 1 kg of typical agricultural silt loam. One hundred seeds were planted 2 cm deep in each plastic box, and the soil in the box was adjusted to 21% soil moisture (wet-weight basis). Two replications of the experiment were incubated under constant light in a 10° C. chamber. The soil temperature averaged 12.6° C. The boxes were watered up to the correct weight every 1-2 days, and checked for emergence. Counts of seedlings were continued until it became clear that emergence had ceased (28 days). The final count of emerged seedlings was expressed as a percentage of the 100 seeds planted. The daily counts were converted to proportions of the final emergence of the box, and a Gompertz curve was fitted to the data from each box using SAS Proc NLIN. […] Analysis of variance was performed and means calculated for each of the three responses (Final emergence, […]).

canola seed [2] = assay: Canola seed treatment, soil emergence: ABA-dose x benzyladenine (as Maxcel) dose factorial
Procedure: (§1) The seed was planted in plastic boxes containing 1 kg of typical agricultural silt loam. One hundred seeds were planted 2 cm deep in each plastic box, and the soil in the box was adjusted to 21% soil moisture (wet-weight basis). Two replications of the experiment were incubated under constant light in a 10° C. chamber. The soil temperature averaged 12.6° C. The boxes were watered up to the correct weight every 1-2 days, and checked for emergence. Counts of seedlings were continued until it became clear that emergence had ceased (28 days). The final count of emerged seedlings was expressed as a percentage of the 100 seeds planted.
(§2) The daily counts were converted to proportions of the final emergence of the box, and a Gompertz curve was fitted to the data from each box using SAS Proc NLIN. From the parameters of the model, median emergence time (T50) and quartile range (Qrange) were estimated for each box. Analysis of variance was performed and means calculated for each of the three responses (Final emergence, T50, Qrange).
The experiment was set up as an ABA-dose x benzyladenine-dose factorial experiment, with four doses of ABA (0, 25, 50 and- 100 g/cwt) and three doses of benzyladenine (0, 1 and 5 g/cwt) for a total of 12 treatment combinations. The treatments were made up in 1 ml samples of experimental aqueous seed treatment slurry. ABA was added in the form of a water solution of the ammonium salt. Benzyladenine was added in the form of Maxcel. Treatments receiving less than the maximum amount of Maxcel, received an appropriate amount of Maxcel blank formulation, so that each slurry sample was identical with regard to Maxcel inert ingredients. All of the seed treatment slurry samples contained CF-Clear film-forming agent and Colorcoat Red (Becker Underwood), each at 1 oz/cwt, and 0.167 oz/cwt Maxim XL fungicide (Syngenta). The slurry application volume was 40 oz/cwt (cwt=100 lbs of seed). Ten gram samples of canola seed were treated with the experimental slurries using a Hege 11 seed treater with a six-inch bowl.
The seed was germinated and data analyzed as described under Example 1.

canola seed [3] = assay: Canola seed treatment, soil emergence: ABA-dose x CPPU (as Prestige) dose factorial
Procedure: as §1, §2
The experiment was set up as an ABA-dose×CPPU-dose factorial experiment, with four doses of ABA (0, 25, 50 and 100 g/cwt) and […] doses of CPPU (0, 0.04, 0.2 and 1 g/cwt) for a total of 16 treatment combinations. The treatments were made up in 1 ml samples of experimental aqueous seed treatment slurry. ABA was added as the free acid. CPPU was added in the form of Prestige®. Treatments receiving less than the maximum amount of Prestige, received an appropriate amount of Prestige blank formulation, so that each slurry sample was identical with regard to Prestige inert ingredients. All of the seed treatment slurry samples contained CF-Clear film-forming agent and Colorcoat Red (Becker Underwood), each at 1 oz/cwt, and 0.167 oz/cwt Maxim XL fungicide (Syngenta). The slurry application volume was 40 oz/cwt (cwt=100 lbs of seed). Ten gram samples of canola seed were treated with the experimental slurries using a Hege 11 seed treater with a six-inch bowl.
The seed was germinated and data analyzed as described under Example 1, except that emergence, being unusually low in this trial, rendered the quartile range estimates unreliable. Therefore, quartile range values are not shown.

canola seed [4] = assay: Canola seed treatment, soil emergence: ABA-dose x GA4/7 dose factorial; details: for Final emergence / QR / T50: GA4/7 dose 0 g/cwt
Procedure: The experiment was set up as an ABA-dose×GA4/7-dose factorial experiment, with four doses of ABA (0, 25, 50 and 100 g/cwt) and […] doses of GA4/7 (0, 1, 5 and 25 g/cwt) for a total of 16 treatment combinations. The treatments were made up in 1 ml samples of experimental aqueous seed treatment slurry. ABA and GA4/7 were added as the free acid technical powders. All of the seed treatment slurry samples contained CF-Clear film-forming agent and Colorcoat Red (Becker Underwood), each at 1 oz/cwt, and 0.167 oz/cwt Maxim XL fungicide (Syngenta). The slurry application volume was 40 oz/cwt (cwt=100 lbs of seed). Ten gram samples of canola seed were treated with the experimental slurries using a Hege 11 seed treater with a six-inch bowl.

[5] = ABA dose 0 g/cwt, Benzyladenine dose 1 g/cwt (technical powder)
[6] = ABA dose 0 g/cwt, Benzyladenine dose 5 g/cwt (technical powder)
[7] = ABA dose 0 g/cwt, Benzyladenine dose 25 g/cwt (technical powder)
[8] = ABA dose 0 g/cwt, Benzyladenine dose 1 g/cwt (in the form of Maxcel)
[9] = ABA dose 0 g/cwt, Benzyladenine dose 5 g/cwt (in the form of Maxcel)
[10] = ABA dose 0 g/cwt, CPPU dose 0.04 g/cwt (in the form of Prestige)
[11] = ABA dose 0 g/cwt, CPPU dose 0.2 g/cwt (in the form of Prestige)
[12] = ABA dose 0 g/cwt, CPPU dose 1 g/cwt (in the form of Prestige)
[13] = ABA (ammonium salt) dose 25 g/cwt, Benzyladenine dose 0 g/cwt
[14] = ABA (ammonium salt) dose 50 g/cwt, Benzyladenine dose 0 g/cwt
[15] = ABA (ammonium salt) dose 100 g/cwt, Benzyladenine dose 0 g/cwt
[16] = ABA (free acid) dose 25 g/cwt, CPPU dose 0 g/cwt (Prestige blank)
[17] = ABA (free acid) dose 50 g/cwt, CPPU dose 0 g/cwt (Prestige blank)
[18] = ABA (free acid) dose 100 g/cwt, CPPU dose 0 g/cwt (Prestige blank)
[19] = ABA (ammonium salt) dose 25 g/cwt, Benzyladenine dose 0 g/cwt (Maxcel blank)
[20] = ABA (ammonium salt) dose 50 g/cwt, Benzyladenine dose 0 g/cwt (Maxcel blank)
[21] = ABA (ammonium salt) dose 100 g/cwt, Benzyladenine dose 0 g/cwt (Maxcel blank)

For `c1ccc(CNc2[nH]cnc3ncnc2-3)cc1` [Benzyladenine, N^6-phenylmethyl-1H-purin-6-amine], the Final emergence (canola seed [1]; [5]) was 98.0%, the Qrange (canola seed [1]; [5]) was 1.30 days and the T50 (canola seed [1]; [5]) was 6.37 days. For the same compound, the Final emergence (canola seed [1]; [6]) was 91.6%, the Qrange (canola seed [1]; [6]) was 2.36 days and the T50 (canola seed [1]; [6]) was 6.76 days. It also gave a Final emergence (canola seed [1]; [7]) of 89.9%, a Qrange (canola seed [1]; [7]) of 3.02 days and a T50 (canola seed [1]; [7]) of 7.88 days. For the same compound, the Final emergence (canola seed [2]; [8]) was 97.5%, the Qrange (canola seed [2]; [8]) was 1.84 days and the T50 (canola seed [2]; [8]) was 6.02 days. The Final emergence (canola seed [2]; [9]) was 97.1%, the Qrange (canola seed [2]; [9]) was 1.77 days and the T50 (canola seed [2]; [9]) was 6.09 days.
`O=C(Nc1ccccc1)Nc1ccnc(Cl)c1` [CPPU] gave a Final emergence (canola seed [3]; [10]) of 80.3%, a T50 (canola seed [3]; [10]) of 7.12 days and a Final emergence (canola seed [3]; [11]) of 78.1%. It also gave a T50 (canola seed [3]; [11]) of 7.48 days, a Final emergence (canola seed [3]; [12]) of 77.6% and a T50 (canola seed [3]; [12]) of 8.30 days.
Compound S-(+)- abscisic acid [ABA] has a Final emergence (canola seed [1]; [13]) of 92.3%, a Qrange (canola seed [1]; [13]) of 3.26 days and a T50 (canola seed [1]; [13]) of 9.15 days. It also gave a Final emergence (canola seed [1]; [14]) of 68.9%, a Qrange (canola seed [1]; [14]) of 4.27 days and a T50 (canola seed [1]; [14]) of 11.20 days. It also gave a Final emergence (canola seed [1]; [15]) of 53.5%, a Qrange (canola seed [1]; [15]) of 4.27 days and a T50 (canola seed [1]; [15]) of 12.74 days. For the same compound, the “Final emergence” value (canola seed [1]; ABA at a dose of 100 g/cwt) was “roughly cut in half”, the Final emergence (canola seed [3]; [16]) was 84.0% and the T50 (canola seed [3]; [16]) was 10.4 days. It also gave a Final emergence (canola seed [3]; [17]) of 66.0%, a T50 (canola seed [3]; [17]) of 12.16 days and a Final emergence (canola seed [3]; [18]) of 48.0%. For the same compound, the T50 (canola seed [3]; [18]) was 16.48 days, the “emergence” value (canola seed [3]; high doses of ABA) was “significant and important reduction in emergence” and the Final emergence (canola seed [4]; ABA (free acid) dose 25 g/cwt) was 84.0%. For the same compound, the QR (canola seed [4]; ABA (free acid) dose 25 g/cwt) was 3.33 days, the T50 (canola seed [4]; ABA (free acid) dose 25 g/cwt) was 10.42 days and the Final emergence (canola seed [4]; ABA (free acid) dose 50 g/cwt) was 66.0%. It also gave a QR (canola seed [4]; ABA (free acid) dose 50 g/cwt) of 3.38 days, a T50 (canola seed [4]; ABA (free acid) dose 50 g/cwt) of 12.16 days and a Final emergence (canola seed [4]; ABA (free acid) dose 100 g/cwt) of 48.0%. For the same compound, the QR (canola seed [4]; ABA (free acid) dose 100 g/cwt) was 5.69 days, the T50 (canola seed [4]; ABA (free acid) dose 100 g/cwt) was 16.48 days and the “emergence” value (canola seed [4]; high doses of ABA alone) was “significant and important reduction in emergence”. It also gave a Final emergence (canola seed [2]; [19]) of 92.9%, a Qrange (canola seed [2]; [19]) of 2.06 days and a T50 (canola seed [2]; [19]) of 8.17 days. For the same compound, the Final emergence (canola seed [2]; [20]) was 91.4%, the Qrange (canola seed [2]; [20]) was 3.74 days and the T50 (canola seed [2]; [20]) was 10.57 days. For the same compound, the Final emergence (canola seed [2]; [21]) was 49.5%, the Qrange (canola seed [2]; [21]) was 5.84 days and the T50 (canola seed [2]; [21]) was 13.61 days. The “Final emergence” value (canola seed [2]; ABA at a dose of 100 g/cwt) was “roughly cut in half”.
